Experiments:
Sirt2 = molecular target: T1, Sirt2 (Mus musculus, UniProt Q8VDQ8); experiment: Oligodendrocyte formation from dissociated neurospheres with Sirt2 inhibitor; format: cell-based; settings: AGK2 10 μM, 6-7 days of differentiation
T1 construct: endogenous in cells; host or cells: dissociated primary neurospheres (NSPCs) from postnatal mouse hippocampi, differentiated for 6-7 days
T1 sequence (Q8VDQ8 1-389): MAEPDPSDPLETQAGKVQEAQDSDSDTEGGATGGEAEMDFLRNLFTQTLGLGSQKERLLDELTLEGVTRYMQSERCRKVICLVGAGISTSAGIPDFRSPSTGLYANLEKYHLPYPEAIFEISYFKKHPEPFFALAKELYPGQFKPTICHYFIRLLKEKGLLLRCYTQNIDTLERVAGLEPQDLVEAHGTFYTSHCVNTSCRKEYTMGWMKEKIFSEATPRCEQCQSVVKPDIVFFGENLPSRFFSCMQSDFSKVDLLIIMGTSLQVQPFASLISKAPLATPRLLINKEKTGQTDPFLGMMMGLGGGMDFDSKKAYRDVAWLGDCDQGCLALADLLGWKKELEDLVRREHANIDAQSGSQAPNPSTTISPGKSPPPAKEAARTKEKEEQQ
Experimental: FK866 (Hasmann & Schemainda, 2003) (Sigma F8557), EX527 (Peck et al, 2010) (Cayman Chemical 10009798), and AGK2 (Outeiro et al, 2007) (Sigma A8231) were dissolved in DMSO and used to inhibit Nampt, Sirt1, and Sirt2 respectively.
Three to five days after their first passage, neurospheres were trypsinized, washed with dissociation medium, and plated at 150,000 cells per well in 24-well plates in differentiation medium [growth medium without FGF and EGF and with BDNF (5 ng/mL, Peprotech, 450-02) on glass coverslips coated with poly-D-lysine (50 ug/mL; Sigma) and laminin (20 ug/mL; BD Biosciences)]. 6-well plates were coated with poly-D-lysine (20 ug/mL) and laminin (10 ug/mL). To enrich for oligodendrocytes, PDGFαα (10 ng/ml, Peprotech 100-13A) was added to neurospheres at passage 2 and PDGFαα (2.5 ng/ml) and 3,3-,5-triiodo-L-thyronine (T3, 40 ng/ml, Sigma T4397) were added to differentiation medium. The percentage of oligodendrocyte precursor cells (OPCs) generated was analyzed after 2 d of differentiation, and the percentage of differentiated oligodendrocytes was analyzed after 6-7 d of differentiation.
The inventors acutely treated NSPCs with the selective inhibitor of Sirt2, AGK2, or the Sirt1 inhibitor, EX527. […] The inventors generated Sirt1/Sirt2-double knockout (Sirt1/2 DKO) neurospheres. […]

Sirt1 = molecular target: T2, Sirt1 (Mus musculus, UniProt Q923E4); experiment: Oligodendrocyte formation from dissociated neurospheres with Sirt1 inhibitor; format: cell-based; settings: EX527 80 μM, 6-7 days of differentiation
T2 construct: endogenous in cells; host or cells: dissociated primary neurospheres (NSPCs) from postnatal mouse hippocampi, differentiated for 6-7 days
T2 sequence (Q923E4 1-737): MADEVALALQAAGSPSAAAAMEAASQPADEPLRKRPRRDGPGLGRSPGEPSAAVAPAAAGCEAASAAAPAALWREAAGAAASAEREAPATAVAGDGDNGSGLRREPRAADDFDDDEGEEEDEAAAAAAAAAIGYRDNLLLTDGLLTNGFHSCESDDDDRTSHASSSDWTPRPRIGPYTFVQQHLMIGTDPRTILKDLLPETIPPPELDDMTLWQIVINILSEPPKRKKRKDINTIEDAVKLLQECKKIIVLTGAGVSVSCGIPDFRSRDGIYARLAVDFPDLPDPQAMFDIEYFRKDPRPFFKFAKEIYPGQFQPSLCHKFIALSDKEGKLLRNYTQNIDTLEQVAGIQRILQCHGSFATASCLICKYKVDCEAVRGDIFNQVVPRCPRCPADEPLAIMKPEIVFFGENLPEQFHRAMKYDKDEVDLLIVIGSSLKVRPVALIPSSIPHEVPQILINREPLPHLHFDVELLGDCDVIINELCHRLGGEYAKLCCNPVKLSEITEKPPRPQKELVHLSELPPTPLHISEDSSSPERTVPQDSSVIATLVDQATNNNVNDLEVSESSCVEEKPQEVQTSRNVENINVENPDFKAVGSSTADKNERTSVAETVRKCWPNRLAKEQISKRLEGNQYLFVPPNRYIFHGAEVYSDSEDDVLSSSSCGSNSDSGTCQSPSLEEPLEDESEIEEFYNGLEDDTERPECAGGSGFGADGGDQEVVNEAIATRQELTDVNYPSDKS
Description: Data are presented as mean±s.e.m. *P<0.05. **P<0.01. ***P<0.001.

NestinGFP+ cells = experiment: Cuprizone model of demyelination and remyelination, fate of NestinGFP+ cells; format: in vivo, mouse
Experimental: Demyelination was induced by feeding 6 to 8-week-old mice a diet containing 0.2% cuprizone (bis-cyclohexanone oxaldihydrazone; Sigma C9012) mixed into a ground standard rodent chow for 4 to 5 weeks (Harlan Laboratories, TD.01453). To allow recovery from cuprizone treatment, food was replaced with standard chow for an additional 1 week.
All tissue sections were and cells incubated in blocking/permeabilization solution containing 10% normal goat serum, 1% BSA, and 0.3% Triton-X in PBS for 45 to 60 min prior to 24 or 48 h of incubation with primary antibodies in 5% normal goat serum and 0.1% Triton-X in PBS at 4° C. at the concentrations listed below. […], Alexa488, or Cy3 conjugated-secondary antibodies diluted in 2% normal goat serum, 1% BSA, and 0.1% Triton-X in PBS were added for 2 h at room temperature. Nuclei were stained with 4,6-diamidino-2-phenylindole (Sigma) for 10 min at room temperature.
For tissue sections, high-magnification (20×, 0.8DICII or 40× oil 1.3DICII) microscopic imaging was performed using a Zeiss Axioimage.Z1. Images were taken in z-stacks of 1 μm steps through the range of tissue section immunoreactivity. For the dorsolateral corner of the SVZ, images were taken from bregma 1.10 to −0.10 mm. For the corpus callosum, images were taken from bregma −1.06 to −2.54 mm. For the dentate gyrus, images were taken from bregma −1.34 to −3.64 mm. Quantification was performed blinded to genotype on 3-8 tissue sections per animal. Cell densities were estimated by the number of immunoreactive cells divided by the area of the structure, measured with ImageJ. Verification of colocalization was achieved by importing stacks of Z images into ImageJ and performing 3D rendering. For cells, 10 or 20× microscopic imaging was performed using a Zeiss Axioimage.Z1. Quantification was performed blinded to genotype on 2 to 3 fields of view per sample and treatment, from 3 to 9 independent samples.
The inventors employed the cuprizone model of demyelination and remyelination. Specifically, the inventors fed 6- to 9-week-old iNSPC-Nampt-KO and littermate control mice (iNSPC-GFP) a diet containing 0.2% cuprizone for 4-5 weeks, inducing deletion of Nampt in the adult Nestin+ population the week before starting the cuprizone diet (FIG. 20B) (Skripuletz et al, 2011). To ensure that analysis of progeny of adult Nestin+ cells, all mice in our cohort expressed Cre recombinase under the inducible Nestin promoter (Nestin-CreERT2) (Lagace et al, 2007) and the aforementioned Cre recombinase responsive GFP reporter transgene. The analysis focus was on lineage tracer marked (NestinGFP+) cells.

[1] = cited from earlier work
[2] = CC of control mice, cuprizone feeding
[3] = iNSPC-GFP CC, cuprizone feeding

## N#C/C(=C\c1ccc(-c2cc(Cl)ccc2Cl)o1)C(=O)Nc1cccc2ncccc12 [AGK2]
Sirt2
  oligodendrocyte formation (O4+): acutely suppressed oligodendrocyte formation

## NC(=O)C1CCCc2c1[nH]c1ccc(Cl)cc21 (stereo not drawn) [EX527]
Sirt1
  oligodendrocyte formation (O4+): acutely suppressed oligodendrocyte formation

## O=C(NN=C1CCCCC1)C(=O)NN=C1CCCCC1 [cuprizone, bis-cyclohexanone oxaldihydrazone]
NestinGFP+ cells; 0.2% cuprizone diet 4-5 weeks
  total number of NestinGFP+ cells in the iNSPC-GFP DG: did not alter
NestinGFP+ cells; [2]
  NestinGFP+Apc+ double positive cells: 4%
  NestinGFP+Sox10+ double positive cells: 16%
NestinGFP+ cells; SGZ, cuprizone fed
  percentage of NestinGFP+ cells co-localized with Gfap+: 41%
  percentage of NestinGFP+ cells co-localized with Nestin+: 35%
NestinGFP+ cells; [3]
  NestinGFP+Gfap+ double positive cells: 24%
  percentage of NestinGFP+Nestin+ cells: 41%

## O=C(O)c1cccnc1 [nicotinic acid]
[1]; chronic administration
  skeletal muscle insulin resistance: can cause skeletal muscle insulin resistance
[1]; chronic treatment
  blood FFA levels: tends to increase blood FFA levels
  total cholesterol and triglyceride levels: lowers total cholesterol and triglyceride levels
